Measured values from patent US6288067A, “Prophylactic or therapeutic agents for drug-induced renal injury” (Suntory Limited, priority 1998, dated 2001).

Assays:
[1] = as reported in Japanese Patent Public Disclosure No. 25323/84; cited from earlier work
[2] = Blood pressure by the tail-cuff method in cyclosporin-induced renal injury rats; type: in vivo, Sprague-Dawley rats; conditions: until the end of observation (6 weeks); cyclosporin 15 mg/kg/day s.c.; BH4 group: plus BH4 dihydrochloride 10 mg/kg/day oral
Description: (§1) Sprague-Dawley rats at the age of 8 to 10 weeks (supplied from Charles River) (300 g) were divided into the following three experimental groups, and examined by comparison. The animals were grown with a low-salt (0.05%) feed during the experimental period of 6 weeks, and treated for 5 weeks from the second to last weeks of the experiment as follows.
(§2) Each group was observed during the experimental period of 6 weeks. The blood pressure, renal cortical NOS activity and blood BP level were determined by the procedures described below. After 6 weeks, blood was collected from the abdominal aorta under anesthesia with phenobarbital, and then the kidney was perfused with physiological saline, then extracted and histologically examined for the effects of BH4 administration on cyclosporin-induced renal injury.
Blood pressure was measured by the tail-cuff method at the start of the experiment and after 2, 4 and 6 weeks.
(§3) Group-to-group statistic analyses were made by two-way ANOVA. In the following analyses, the significance level was p<0.05.

[3] = test system: cyclosporin-induced renal injury rats; test: Histopathological findings (arteriolopathy) in renal tissue samples, HE and periodic acid-Shiff staining; type: in vivo, Sprague-Dawley rats
Description: as §1, §2
After collecting urine and measuring blood pressure at week 6, the animals were abdominally incised under anesthesia, bled from the abdominal aorta and perfused with physiological saline via this site. The extracted kidney was fixed in a 10% formaldehyde solution, embedded in paraffin, then sliced by a microtome into renal tissue samples of 4 μm. The samples were stained with hematoxylin/eosin (HE) and periodic acid-Shiff. The incidences of pathological findings, i.e. arteriolopathy in the rat renal tissue samples were examined by comparison.
as §3

rats = test: Acute toxicity, oral, rats; conditions: rats, oral route
[4] = Acute toxicity, oral, rats; conditions: rat, in vivo, po
ED-1-positive cells = test: Renal histochemistry, staining with monoclonal antibody against macrophage cell membrane antigen ED-1; type: in vivo, Sprague-Dawley rats; conditions: frozen renal tissues; cyclosporin 15 mg/kg/day s.c.; BH4 group: plus BH4 dihydrochloride 10 mg/kg/day oral
Description: as §1, §2
(§4) Sections were prepared from frozen renal tissues and stained with NADPH-diaphorase for evaluating NOS activity on the tissues. The tissues were also stained with a monoclonal antibody against the macrophage cell membrane antigen ED-1 to examine the NOS isoform.

[5] = Biopterin (BP) level in blood by HPLC in cyclosporin-induced renal injury rats; type: in vivo, Sprague-Dawley rats; conditions: average; cyclosporin 15 mg/kg/day s.c. plus BH4 dihydrochloride 10 mg/kg/day oral
Description: as §1, §2, §3

renal tissue NOS = test: Renal cortical NOS activity (3H-citrulline produced from 3H-arginine) in cyclosporin-induced renal injury rats; type: in vivo, Sprague-Dawley rats; conditions: orally administered BH4, cyclosporin-treated rats
Description: as §1, §2
NOS activity was determined by measuring ^3 H-citrulline produced by renal tissue NOS using 3H-arginine.
as §3

NOS (NADPH-diaphorase) = test: Renal histochemistry, NADPH-diaphorase staining; type: in vivo, Sprague-Dawley rats
Description: as §1, §2, §4

Compound	toxicity in words [1]	Blood pressure [2]	histopathological findings of arteriolopathy, conclusion in words ([3]; model rats, BH4 orally administered)	arteriolopathy, result in words with significance ([3]; p<0.0001, cyclosporin 15 mg/kg/day s.c., BH4 group: plus BH4 dihydrochloride 10 mg/kg/day oral)	Percentage of the incidence of pathological findings in renal tissues: Arteriolopathy ([3]; ± SE, week 6, control group 0.00 ± 0.00, cyclosporin 15 mg/kg/day s.c., BH4 group: plus BH4 dihydrochloride 10 mg/kg/day oral)	toxicity in words (rats)	LD50 [4]	invasions of ED-1-positive cells (ED-1-positive cells)	decrease of blood BP level as compared with CyA group [5]	vascular endothelial NOS activity level / function (renal tissue NOS)	NADPH-diaphorase stainability (NOS (NADPH-diaphorase); frozen renal tissues, cyclosporin 15 mg/kg/day s.c., BH4 group: plus BH4 dihydrochloride 10 mg/kg/day oral)	functions of vascular endothelial NOS (NOS (NADPH-diaphorase); renal histochemistry, cyclosporin plus oral BH4 dihydrochloride)
C[C@H](O)[C@H](O)C1CNc2nc(N)[nH]c(=O)c2N1 (stereo partly drawn) [(6R,S)-5,6,7,8-tetrahydrobiopterin]	only slightly toxic	–	–	–	–	–	–	–	–	–	–	–
C[C@H](O)[C@H](O)[C@H]1CNc2nc(N)[nH]c(=O)c2N1 [BH4, (6R)-L-erythro-5,6,7,8-tetrahydrobiopterin]	–	kept at a normal level	remarkably improved histopathological findings	significantly (p<0.0001) inhibited arteriolopathy	36.814 ± 2.093%	little toxicity	≥ 2000 mg/kg	decreased invasions of ED-1-positive cells	0.002 nmol	increased vascular endothelial NOS activity level	recovered the NADPH-diaphorase stainability	normalized the functions of vascular endothelial NOS
